Reference: patent publication US20090048301A1 (IMCLONE SYSTEMS INCORPORATED, priority 2003, published 2009)

Each compound was assayed on bovine tubulin (assay: In vitro tubulin polymerization assay (turbidity at 340 nm)). Conditions: 10 μM compound, 30 minute data point, vs 1% DMSO control.
Type: biochemical
Method: Briefly, tubulin polymerization is a kinetic process that is temperature-dependent and requires GTP and was performed as follows. Soluble tubulin dimers polymerize into microtubules upon warming, and polymerization in vitro correlates with an increase in turbidity (measured at 340 nm). Lyophilized bovine tubulin (HTS Tubulin—97% tubulin, <3% MAPs—Cytoskeleton Inc.) was ressuspended in G-PEM buffer (80 mM PIPES pH 7, 1 mM EGTA, 1 mM MgCl2, 1 mM GTP, 5% glycerol) to a final concentration of 3 mg/ml and kept at 4° C. Compounds in 100× stock solutions in DMSO were dotted to pre-warmed 96-well plates (Corning Costar 3696), the plates were transferred to a 37° C. plate reader (SPECTRAmax Plus, Molecular Devices), cold tubulin was added to the wells, and the plates were shaken for mixing. The absorbance at 340 nm was determined at one minute intervals for 30 minutes. Kinetic curves with 30 points each were collected for each compound, and the dynamic range was between 0 and 0.4 OD units. The percentage inhibition values were calculated using the 30 minute data point and based on control samples (treated with 1% DMSO only). The assay is a modified version of the HTS kit sold by Cytoskeleton (1830 S. Acoma St., Denver, Colo.), adapted to maximize throughput and reduce time, without reduction in dynamic range or sensitivity, while retaining the ability to detect compounds that inhibit or enhance tubulin polymerization.
Tubulin polymerization is a kinetic process that is temperature-dependent and requires GTP. Soluble tubulin dimers polymerize into microtubules upon warming, and polymerization in vitro correlates with an increase in turbidity (measured at 340 nm). Liophilized bovine tubulin (HTS Tubulin—97% tubulin, <3% MAPs—Cytoskeleton Inc.) was ressuspended in G-PEM buffer (80 mM PIPES pH 7, 1 mM EGTA, 1 mM MgCl2, 1 mM GTP, 5% glycerol) to a final concentration of 3 mg/ml and kept at 4° C. Compounds in 100× stock solutions in DMSO were dotted to pre-warmed 96-well plates (Corning Costar 3696), the plates were immediately transferred to a 37° C. plate reader (SPECTRAmax Plus, Molecular Devices), cold tubulin was added to the wells, plates were shaken for mixing, and absorbance at 340 nm was read every minute for 30 minutes. Kinetic curves with 30 points each were collected for each compound, and the dynamic range was between 0 and 0.4 OD units. Percentage inhibition values were calculated using the 30 minute data point, based on control samples (treated with 1% DMSO only). This assay is a modified version of the HTS kit sold by Cytoskeleton, adapted to maximize throughput and reduce time, without reduction in dynamic range or sensitivity, while retaining the ability to detect compounds that inhibit or enhance tubulin polymerization.

SMILES | Tubulin Assay: percent inhibition at 10 μM based on 30 minute data [%]
O=[N+]([O-])c1cc(C(F)(F)F)ccc1-c1nnc(Nc2ccc3c(c2)OCO3)[nH]1 [Compound 124b] | 26
COc1cc(CNc2ncccc2-c2nnc(Nc3ccc(OC)cc3OC)[nH]2)cc(OC)c1 [Compound 24, (3,5-Dimethoxy-benzyl)-{3-[5-(2,4-dimethoxy-phenylamino)-4H-[1,2,4]triazol-3-yl]-pyridin-2-yl}-amine] | 20
Brc1ccc(-c2nnc(-c3ccccc3NCc3ccc4[nH]cnc4c3)[nH]2)cc1 [Compound 147, (1H-Benzoimidazol-5-ylmethyl)-{2-[5-(4-bromo-phenyl)-4H-[1,2,4]triazol-3-yl]-phenyl}-amine] | 43
FC(F)(F)c1cccc(-c2nnc(-c3cccnc3NCc3ccc4c(c3)OCO4)[nH]2)c1 [Compound 83, Benzo[1,3]dioxol-5-ylmethyl-{3-[5-(3-trifluoromethyl-phenyl)-4H-[1,2,4]triazol-3-yl]-pyridin-2-yl}-amine] | 25
Nc1ccccc1-c1nnc(Nc2ccc3c(c2)OCO3)o1 [Compound 237a, [5-(2-Amino-phenyl)-[1,3,4]oxadiazol-2-yl]-benzo[1,3]dioxol-5-yl-amine] | 53
Nc1cc(C(F)(F)F)ccc1-c1nnc(Nc2ccc3c(c2)OCO3)[nH]1 [Compound 124c, [5-(2-Amino-4-trifluoromethyl-phenyl)-4H-[1,2,4]triazol-3-yl]-benzo[1,3]dioxol-5-yl-amine] | 61
CN(C)c1ccc(-c2nnc(Nc3ccc4c(c3)OCCO4)o2)c(NCc2cccnc2)c1 [Compound 229, (2,3-Dihydro-benzo[1,4]dioxin-6-yl)-(5-{4-dimethylamino-2-[(pyridin-3-ylmethyl)-amino]-phenyl}-[1,3,4]oxadiazol-2-yl)-amine] | 32
Cc1cc(C)cc(CS(=O)(=O)Nc2ccccc2-c2nnc(Nc3ccc4c(c3)OCO4)o2)c1 [Compound 240, N-{2-[5-(Benzo[1,3]dioxol-5-ylamino)-[1,3,4]oxadiazol-2-yl]-phenyl}-C-(3,5-dimethyl-phenyl)-methanesulfonamide] | 20
COc1cccc(Nc2ncc(-c3ccccc3NCc3cc(OC)cc(OC)c3)o2)c1 [Compound 251, {5-[2-(3,5-Dimethoxy-benzylamino)-phenyl]-oxazol-2-yl}-(3-methoxy-phenyl)-amine] | 30
COc1cccc(CNc2ncccc2-c2nnc(Nc3ccc4c(c3)OCCO4)[nH]2)c1 [Compound 52, {3-[5-(2,3-Dihydro-benzo[1,4]dioxin-6-ylamino)-4H-[1,2,4]triazol-3-yl]-pyridin-2-yl}-(3-methoxy-benzyl)-amine] | 35
Cn1nc(-c2cccnc2NCc2ccncc2)nc1Nc1ccc2c(c1)OCO2 [Compound 70, {3-[5-(Benzo[1,3]dioxol-5-ylamino)-1-methyl-1H-[1,2,4]triazol-3-yl]-pyridin-2-yl}-pyridin-4-ylmethyl-amine] | 32
COCCCOc1ccccc1-c1cnc(Nc2cccc(OC)c2)o1 [Compound 258, (3-Methoxy-phenyl)-{5-[2-(3-methoxy-propoxy)-phenyl]-oxazol-2-yl}-amine] | 47
COc1cccc(Nc2nnc(-c3cccnc3NCc3cc(OC)cc(OC)c3)[nH]2)c1 [Compound 23, (3,5-Dimethoxy-benzyl)-{3-[5-(3-methoxy-phenylamino)-4H-[1,2,4]triazol-3-yl]-pyridin-2-yl}-amine] | 22
COc1cc(CNc2ncccc2-c2nnc(Nc3cccc(F)c3)o2)cc(OC)c1 [Compound 184, (3,5-Dimethoxy-benzyl)-{3-[5-(3-fluoro-phenylamino)-[1,3,4]oxadiazol-2-yl]-pyridin-2-yl}-amine] | 23
Brc1ccc(-c2nnc(-c3ccccc3NCc3ccc4cn[nH]c4c3)[nH]2)cc1 [Compound 146, {2-[5-(4-Bromo-phenyl)-4H-[1,2,4]triazol-3-yl]-phenyl}-(1H-indazol-6-ylmethyl)-amine] | 39
COc1cccc(-c2nnc(-c3cccnc3OCc3ccc4c(c3)OCO4)[nH]2)c1 [Compound 110, 2-(Benzo[1,3]dioxol-5-ylmethoxy)-3-[5-(3-methoxy-phenyl)-4H-[1,2,4]triazol-3-yl]-pyridine] | 20
COc1cccc(Nc2nnc(-c3cccnc3NCc3ccc4c(c3)OCCO4)[nH]2)c1 [Compound 35, (2,3-Dihydro-benzo[1,4]dioxin-6-ylmethyl)-{3-[5-(3-methoxy-phenylamino)-4H-[1,2,4]triazol-3-yl]-pyridin-2-yl}-amine] | 66
c1ccc(-c2nnc(Nc3ccc4c(c3)OCCO4)o2)c(NCc2ccc3[nH]ncc3c2)c1 [Compound 222, (2,3-Dihydro-benzo[1,4]dioxin-6-yl)-(5-{2-[(1H-indazol-5-ylmethyl)-amino]-phenyl}-[1,3,4]oxadiazol-2-yl)-amine] | 95
c1ccc(-c2nnc(Nc3ccc4c(c3)OCCO4)o2)c(NCc2cncnc2)c1 [Compound 226, (2,3-Dihydro-benzo[1,4]dioxin-6-yl)-(5-{2-[(pyrimidin-5-ylmethyl)-amino]-phenyl}-[1,3,4]oxadiazol-2-yl)-amine] | 94
N#Cc1ccc(S(=O)(=O)Nc2ccccc2-c2nnc(Nc3ccc4c(c3)OCCO4)o2)cc1 [Compound 242, 4-Cyano-N-{2-[5-(2,3-dihydro-benzo[1,4]dioxin-6-ylamino)-[1,3,4]oxadiazol-2-yl]-phenyl}-benzenesulfonamide] | 92
COc1cc(Nc2ncccc2-c2nnc(Nc3cccc(NCc4ccco4)c3)[nH]2)cc(OC)c1 [Compound 62, N-{5-[2-(3,5-Dimethoxy-phenylamino)-pyridin-3-yl]-4H-[1,2,4]triazol-3-yl}-N′-furan-2-ylmethyl-benzene-1,3-diamine] | 73
CS(=O)(=O)c1ccc(-c2nnc(-c3ccccc3NCC3CCOC3)[nH]2)cc1 (stereo not drawn) [Compound 134, {2-[5-(4-Methanesulfonyl-phenyl)-4H-[1,2,4]triazol-3-yl]-phenyl}-(tetrahydro-furan-3-ylmethyl)-amine] | 34
COc1cc(Nc2ncccc2-c2nnc(Nc3cccc(NCc4ccc5c(c4)OCO5)c3)[nH]2)cc(OC)c1 [Compound 60, N-Benzo[1,3]dioxol-5-ylmethyl-N′-{5-[2-(3,5-dimethoxy-phenylamino)-pyridin-3-yl]-4H-[1,2,4]triazol-3-yl}-benzene-1,3-diamine] | 99
c1cnc(NCc2ccc3c(c2)OCCO3)c(-c2nnc(-c3ccc4c(c3)OCO4)[nH]2)c1 [Compound 104, [3-(5-Benzo[1,3]dioxol-5-yl-4H-[1,2,4]triazol-3-yl)-pyridin-2-yl]-(2,3-dihydro-benzo[1,4]dioxin-6-ylmethyl)-amine] | 21
CS(=O)(=O)c1ccc(-c2nnc(-c3cccnc3NCc3cccc(F)c3)o2)cc1 [Compound 214, (3-Fluoro-benzyl)-{3-[5-(4-methanesulfonyl-phenyl)-[1,3,4]oxadiazol-2-yl]-pyridin-2-yl}-amine] | 52
COc1ccc(Nc2nnc(-c3ccccc3NCc3ccncc3)[nH]2)cc1 [Compound 116, (4-Methoxy-phenyl)-(5-{2-[(pyridin-4-ylmethyl)-amino]-phenyl}-4H-[1,2,4]triazol-3-yl)-amine] | 20
Fc1cccc(CNc2ncccc2-c2nnc(Nc3ccc4c(c3)OCO4)o2)c1 [Compound 171, {3-[5-(Benzo[1,3]dioxol-5-ylamino)-[1,3,4]oxadiazol-2-yl]-pyridin-2-yl}-(3-fluoro-benzyl)-amine] | 91
